From patent US6436952B1, “Benzonaphthyridine-N-oxides comprising a PDE3 and PDE4 inhibiting activity” (BYK Gulden Lomberg Chemische Fabrik GmbH, priority 1998, dated 2002)

How the values were obtained:
PDE4 (cAMP-specific) = assay: Inhibition of PDE isoenzymes: PDE4 in cytosol of human polymorphonuclear leukocytes; assay type: biochemical; conditions: cytosol of human PMNL, cAMP as substrate, motapizone (1 μM) present
Experimental: (§1) The PDE activity was determined according to Thompson et al. (1) with some modifications (2). The test samples contained 40 mM tris HCl (pH 7.4), 5 mM MgCl2, 0.5 μM cAMP or cGMP, [^3H]cAMP or [^3H]cGMP (about 50 000 cpm/sample), the PDE isoenzyme-specific additions described in greater detail below, the indicated concentrations of inhibitor and an aliquot of the enzyme solution in a total sample volume of 200 μl. […] After preincubation at 37° C. for 5 minutes, the reaction was started by addition of the substrate (cAMP or cGMP). The samples were incubated at 37° C. for a further 15 min. The reaction was terminated by addition of 50 μl of 0.2N HCl. After cooling on ice for 10 minutes and addition of 25 μg of 5′-nucleotidase (snake venom from Crotalus atrox), the mixture was again incubated at 37° C. for 10 min and the samples were then applied to QAE Sephadex A-25 columns. The columns were eluted with 2 ml of 30 mM ammonium formate (pH 6.0). The radioactivity of the eluate was measured and corrected by the corresponding blank values. The proportion of hydrolyzed nucleotide in no case exceeded 20% of the original substrate concentration. […]
(§2) The lC50 values were determined from the concentration-inhibition curves by nonlinear regression using the GraphPad InPlot™ program (GraphPad Software Inc., Philadelphia, USA).

PDE3 (cGMP-inhibited) = target: T1, PDE3 (cGMP-inhibited) (Homo sapiens, UniProt Q14432); assay: Inhibition of PDE isoenzymes: PDE3 in homogenates of human blood platelets; assay type: biochemical; conditions: cAMP as substrate, read-out: PDE3 [-log IC50, mol/l] (converted)
T1 construct: were investigated in homogenates of human blood platelets; from tissue; host or cells: homogenate of human blood platelets
Experimental: as §1, §2

T1 sequence (Q14432 whole entry): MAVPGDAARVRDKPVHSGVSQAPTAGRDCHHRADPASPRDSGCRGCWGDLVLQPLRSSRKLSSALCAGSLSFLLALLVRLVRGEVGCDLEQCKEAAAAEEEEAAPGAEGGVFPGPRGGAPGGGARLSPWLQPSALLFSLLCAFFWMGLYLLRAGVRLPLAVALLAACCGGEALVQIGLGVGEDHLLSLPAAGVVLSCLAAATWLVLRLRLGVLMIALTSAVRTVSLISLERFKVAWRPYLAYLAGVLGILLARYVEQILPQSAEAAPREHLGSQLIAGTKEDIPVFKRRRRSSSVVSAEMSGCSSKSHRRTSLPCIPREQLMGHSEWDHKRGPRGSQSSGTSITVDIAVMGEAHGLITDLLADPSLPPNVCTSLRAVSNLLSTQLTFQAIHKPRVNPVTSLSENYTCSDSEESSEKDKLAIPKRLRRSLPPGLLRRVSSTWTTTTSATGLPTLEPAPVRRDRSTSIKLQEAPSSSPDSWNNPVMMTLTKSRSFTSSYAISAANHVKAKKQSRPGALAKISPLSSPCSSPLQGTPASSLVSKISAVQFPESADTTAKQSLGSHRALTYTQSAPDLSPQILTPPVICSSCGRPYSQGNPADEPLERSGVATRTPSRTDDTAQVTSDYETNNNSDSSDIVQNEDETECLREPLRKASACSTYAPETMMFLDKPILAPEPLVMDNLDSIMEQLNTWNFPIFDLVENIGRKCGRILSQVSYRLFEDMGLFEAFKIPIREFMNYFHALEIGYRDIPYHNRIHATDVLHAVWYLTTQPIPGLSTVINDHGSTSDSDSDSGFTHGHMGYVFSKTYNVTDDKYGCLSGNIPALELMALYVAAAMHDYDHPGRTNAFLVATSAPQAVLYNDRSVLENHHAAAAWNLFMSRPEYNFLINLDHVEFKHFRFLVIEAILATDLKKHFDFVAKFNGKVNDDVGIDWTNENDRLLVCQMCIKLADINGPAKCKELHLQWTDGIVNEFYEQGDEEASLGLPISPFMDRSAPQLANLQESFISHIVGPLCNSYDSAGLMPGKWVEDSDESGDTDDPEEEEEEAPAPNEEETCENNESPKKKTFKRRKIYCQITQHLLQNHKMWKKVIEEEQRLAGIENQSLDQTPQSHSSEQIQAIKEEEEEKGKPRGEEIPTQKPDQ

PDE4 [-log IC50, mol/l] (PDE4 (cAMP-specific)): 7.53 -log IC50, mol/l
melting point: 168 to 170 °C
IC50 (PDE3 (cGMP-inhibited)): 776 nM
Structure (SMILES): CCOc1cc2c(cc1OC)C(c1ccc(-c3nnn(CC)n3)cc1)=NC1CC[N+](C)([O-])CC21 (stereo not drawn) [Compound 1, cis-9-Ethoxy-8-methoxy-2-methyl-6-[4-(2H-2-ethyltetrazol-5-yl)phenyl]-1,2,3,4,4a,10b-hexahydrobenzo[c][1,6]naohthyridine N-2-Oxide]
